The structures appear in SMILES notation. The source made the active and inactive calls. No cut-off for these calls is given here.

A word on the IC50: it is the concentration needed to halve the response being measured. The low end stands for higher potency, the high end for lower potency.

Experiment [1] addresses T1, DNA polymerase delta catalytic subunit (Homo sapiens) (UniProt P28340).
T1 sequence (whole entry): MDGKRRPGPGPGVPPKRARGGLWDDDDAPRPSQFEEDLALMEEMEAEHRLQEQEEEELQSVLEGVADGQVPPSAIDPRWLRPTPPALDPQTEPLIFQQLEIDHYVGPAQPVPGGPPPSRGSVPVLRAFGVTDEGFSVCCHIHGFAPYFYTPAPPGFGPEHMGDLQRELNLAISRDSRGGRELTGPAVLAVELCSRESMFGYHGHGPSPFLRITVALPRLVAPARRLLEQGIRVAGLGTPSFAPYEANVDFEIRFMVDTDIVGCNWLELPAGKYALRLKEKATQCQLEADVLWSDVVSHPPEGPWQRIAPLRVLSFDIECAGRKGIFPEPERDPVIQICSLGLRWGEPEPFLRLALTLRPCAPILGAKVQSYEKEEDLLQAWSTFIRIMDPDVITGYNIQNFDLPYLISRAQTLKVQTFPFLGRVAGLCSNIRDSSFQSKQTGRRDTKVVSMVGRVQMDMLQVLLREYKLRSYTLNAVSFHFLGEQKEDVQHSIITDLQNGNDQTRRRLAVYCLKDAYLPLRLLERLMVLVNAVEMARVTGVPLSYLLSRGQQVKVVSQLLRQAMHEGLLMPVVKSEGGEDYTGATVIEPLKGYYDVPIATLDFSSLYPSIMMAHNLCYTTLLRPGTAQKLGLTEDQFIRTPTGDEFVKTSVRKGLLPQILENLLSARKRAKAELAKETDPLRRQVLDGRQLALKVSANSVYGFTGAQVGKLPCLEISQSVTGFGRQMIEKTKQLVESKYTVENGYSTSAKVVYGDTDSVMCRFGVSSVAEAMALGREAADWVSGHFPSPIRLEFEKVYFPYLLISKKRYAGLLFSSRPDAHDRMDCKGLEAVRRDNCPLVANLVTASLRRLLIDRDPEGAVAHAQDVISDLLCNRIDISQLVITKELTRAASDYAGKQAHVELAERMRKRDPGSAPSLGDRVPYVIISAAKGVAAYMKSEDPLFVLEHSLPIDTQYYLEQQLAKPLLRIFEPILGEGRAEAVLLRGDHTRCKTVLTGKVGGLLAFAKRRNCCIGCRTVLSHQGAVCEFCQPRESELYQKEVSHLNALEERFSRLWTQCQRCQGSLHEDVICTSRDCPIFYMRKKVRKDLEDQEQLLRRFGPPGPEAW
The experiment can be described thus: Inhibition of human DNA polymerase delta at 100 uM.

Experiment [2] has as its system Escherichia coli. Nature of the experiment: Inhibition of Escherichia coli DNA polymerase 1 at 100 uM.
For experiment [3], the system named is Tequatrovirus T4. The experiment can be described thus: Inhibition of T4 DNA polymerase at 100 uM.
Experiment [4] has as its target T2, DNA polymerase kappa (Homo sapiens, UniProt Q9UBT6).
T2 sequence (Q9UBT6 whole entry): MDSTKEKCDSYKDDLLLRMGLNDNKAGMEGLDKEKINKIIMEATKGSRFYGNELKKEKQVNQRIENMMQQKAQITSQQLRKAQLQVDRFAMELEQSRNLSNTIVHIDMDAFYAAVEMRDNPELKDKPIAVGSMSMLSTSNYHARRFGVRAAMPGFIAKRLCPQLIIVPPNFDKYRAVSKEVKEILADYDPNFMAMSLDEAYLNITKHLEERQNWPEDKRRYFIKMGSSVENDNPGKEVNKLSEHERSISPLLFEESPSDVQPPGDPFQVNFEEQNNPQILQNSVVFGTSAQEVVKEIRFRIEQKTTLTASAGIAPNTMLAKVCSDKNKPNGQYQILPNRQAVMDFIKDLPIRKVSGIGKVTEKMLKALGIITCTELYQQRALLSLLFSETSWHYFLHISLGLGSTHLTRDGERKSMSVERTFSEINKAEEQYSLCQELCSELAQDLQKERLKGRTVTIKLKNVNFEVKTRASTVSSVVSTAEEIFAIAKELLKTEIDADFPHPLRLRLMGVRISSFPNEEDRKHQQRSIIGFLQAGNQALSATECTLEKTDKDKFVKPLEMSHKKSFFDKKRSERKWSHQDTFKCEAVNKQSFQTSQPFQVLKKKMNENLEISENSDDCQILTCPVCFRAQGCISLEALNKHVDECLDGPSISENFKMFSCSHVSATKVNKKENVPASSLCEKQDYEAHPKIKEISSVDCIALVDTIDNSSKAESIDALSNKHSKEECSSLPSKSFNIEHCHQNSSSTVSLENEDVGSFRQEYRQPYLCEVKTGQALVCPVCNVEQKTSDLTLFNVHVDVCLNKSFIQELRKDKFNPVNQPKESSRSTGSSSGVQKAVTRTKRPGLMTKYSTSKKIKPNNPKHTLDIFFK
Nature of the experiment: Inhibition of human DNA polymerase kappa.

In experiment [5] the test system is Brassica oleracea. Nature of the experiment: Inhibition of cauliflower DNA polymerase beta at 100 uM.
The species entered for experiment [6] is Homo sapiens. The experiment can be described thus: Inhibition of human DNA topoisomerase 2 at 100 uM.
Experiment [7] deals with Inosine-5'-monophosphate dehydrogenase 2 (Mus musculus) (UniProt P24547). Nature of the experiment: Inhibition of mouse IMP dehydrogenase 2 at 100 uM.
In experiment [8] the target is T3, DNA topoisomerase 1 (Homo sapiens) (UniProt P11387).
T3 sequence (whole entry): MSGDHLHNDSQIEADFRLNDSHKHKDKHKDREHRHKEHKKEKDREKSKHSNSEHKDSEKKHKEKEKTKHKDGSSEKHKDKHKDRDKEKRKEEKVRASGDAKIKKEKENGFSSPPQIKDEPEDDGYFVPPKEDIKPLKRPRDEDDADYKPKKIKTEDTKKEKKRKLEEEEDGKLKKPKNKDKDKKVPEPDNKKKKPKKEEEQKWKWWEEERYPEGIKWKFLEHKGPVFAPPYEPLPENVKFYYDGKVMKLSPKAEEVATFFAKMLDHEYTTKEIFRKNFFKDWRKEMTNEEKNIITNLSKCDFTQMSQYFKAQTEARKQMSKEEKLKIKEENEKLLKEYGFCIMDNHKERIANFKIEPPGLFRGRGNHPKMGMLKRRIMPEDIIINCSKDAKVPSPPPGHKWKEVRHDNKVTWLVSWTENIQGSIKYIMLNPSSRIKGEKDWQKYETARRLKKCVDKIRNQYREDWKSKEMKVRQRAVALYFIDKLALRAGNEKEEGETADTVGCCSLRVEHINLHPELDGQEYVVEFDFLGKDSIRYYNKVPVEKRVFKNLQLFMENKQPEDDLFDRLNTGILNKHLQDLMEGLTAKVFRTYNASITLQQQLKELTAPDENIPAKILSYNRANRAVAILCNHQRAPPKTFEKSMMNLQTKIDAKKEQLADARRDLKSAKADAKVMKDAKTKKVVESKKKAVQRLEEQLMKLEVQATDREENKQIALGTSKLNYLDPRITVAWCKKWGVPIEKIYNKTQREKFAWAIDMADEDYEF
Nature of the experiment: Inhibition of human DNA topoisomerase 1 at 100 uM.

Chain of Inosine-5'-monophosphate dehydrogenase 2 (Mus musculus) (P24547 whole entry, looked up): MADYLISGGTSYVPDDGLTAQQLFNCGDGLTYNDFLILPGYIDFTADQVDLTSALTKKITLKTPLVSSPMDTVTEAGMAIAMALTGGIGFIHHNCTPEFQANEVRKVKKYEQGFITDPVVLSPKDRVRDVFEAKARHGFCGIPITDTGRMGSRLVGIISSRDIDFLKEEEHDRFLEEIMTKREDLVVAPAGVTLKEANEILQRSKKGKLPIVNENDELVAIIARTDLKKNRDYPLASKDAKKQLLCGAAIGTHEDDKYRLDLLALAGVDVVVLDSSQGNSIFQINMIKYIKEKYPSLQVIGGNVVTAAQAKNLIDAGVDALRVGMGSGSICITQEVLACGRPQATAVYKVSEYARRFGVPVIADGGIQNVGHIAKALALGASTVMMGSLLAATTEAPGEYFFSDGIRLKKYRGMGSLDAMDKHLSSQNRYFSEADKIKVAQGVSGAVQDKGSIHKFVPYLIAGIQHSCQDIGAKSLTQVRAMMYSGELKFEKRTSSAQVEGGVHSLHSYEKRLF

Regarding `COc1cc(O)c2c(c1)C1(OC2=O)C(C)=CC(=O)C1O` (stereo unspecified) [TALAROFLAVONE], the outcome in experiment [1], in experiment [2], in experiment [3], in experiment [5], in experiment [6] and in experiment [7] was inactive. Also, the result in experiment [8] was inactive. Besides, the half-maximal inhibitory concentration (IC50) in experiment [4] is 86.5 µM.
As to `COc1cc(O)c2c(=O)oc3c(c2c1)C(C)CC3=O` (stereo unspecified), the result in experiment [1], in experiment [2], in experiment [3], in experiment [5], in experiment [6] and in experiment [7] was inactive. Further, the outcome in experiment [8] was inactive. Moreover, the concentration for half-maximal inhibition (IC50) in experiment [4] was 59.8 µM.

Source of the values: ChEMBL document CHEMBL1143937, “1-deoxyrubralactone, a novel specific inhibitor of families X and Y of eukaryotic DNA polymerases from a fungal strain derived from sea algae” (Bioorg Med Chem, 2008).
